From patent US6998394B2, “Process for isolating physalins from plants and pharmaceutical compositions containing physalins” (Fundacao Oswaldo Cruz - FIOCRUZ, priority 1999, dated 2006)
Values after ≈ are worked out from the molar mass of the structure shown.

Assays:
[1] = tested on: trypomastigotes of Trypanosoma cruzi (Y strain); assay: In vitro antitrypanosomial activity against T. cruzi trypomastigotes (count of viable parasites); assay type: cell-based
Experimental: In vitro studies using pure physalins are carried out with trypomastigotes of Trypanosoma cruzi.
T. cruzi Y strain is maintained in MK2 strain cell culture in a RPMI medium+10% bovine fetal serum, at 37° C., under 5% CO2. This material is centrifuged during 15 minutes at 1500 rpm. Afterwards, the material is maintained in rest at 37° C. for 2 hours. The supernatant is centrifuged again during 30 minutes at 3000 rpm. The trypomastigotes (5×10^5/well) in RPMI medium with 10% bovine fetal serum and antibiotic are incubated in wells with different concentrations of physalin B or physalin D. After 24–48 hours, the viable parasites maintained at a temperature of 4° C. are counted. Each experiment was carried out in triplicate.

[2] = tested on: promastigotes of Leishmania amazonensis; assay: In vitro antileishmanicidal activity on promastigotes (MTT viability); assay type: cell-based; settings: 20 μg/ml
Experimental: Stationary phase promastigotes of Leishmania amazonensis were obtained from parasite cultures in LIT medium with 10% bovine fetal serum. The assays were standardized in plates with 96 wells. Promastigotes were plaque harbored, in triplicate, in 100 μl of LIT medium. 10 μl of physalin B solution and 10 μl of a positive control (Amphotericin B) are added to the wells. Several dilutions were used. Parasite viability was determined after incubation with MTT by reading the absorbance at 570 nm in ELISA Microplate.

[3] = tested on: Leishmania amazonensis in peritoneal macrophages; assay: In vitro infection assay using peritoneal macrophages infected with Leishmania amazonensis; assay type: cell-based; settings: 10 μg/ml
Experimental: Peritoneal macrophages were incubated during 2 hours at 37° C. in 24 wells plates with laminas. After washing to remove non-bound cells, the wells were incubated with stationary phase promastigotes of Leishmania amazonensis (parasites/macrophages in a ratio of 10:1). After 18 hours, the cultures were washed to remove the free parasites. After 24 hours, physalin B solution is added to the wells. The laminas are collected, fixed with methanol and dyed with Giemsa. The infection level was determined by counting parasite quantity and the infected macrophages percentage.

[4] = tested on: TNFα production by macrophages; assay: TNFα production by LPS-stimulated peritoneal macrophages (ELISA); assay type: cell-based; settings: LPS 500 ng/ml, various concentrations, supernatants 4 hours after stimulation, FIG. 3A
Experimental: (§1) In a first test, thyoglycollate-elicited peritoneal macrophages were stimulated with LPS (500 ng/ml) in the presence of various concentrations of physalin B. Cell-free supernatants were collected 4 hours after stimulation and tested for TNα and IL-6 production by ELISA.

[5] = tested on: IL-6 production by macrophages; assay: IL-6 production by LPS-stimulated peritoneal macrophages (ELISA); assay type: cell-based; settings: LPS 500 ng/ml, various concentrations, supernatants 4 hours after stimulation, FIG. 3B
Experimental: as §1

[6] = tested on: nitric oxide production by macrophages; assay: Nitric oxide (nitrite) production by stimulated peritoneal macrophages (Griess assay); assay type: cell-based; settings: 24 hours
Experimental: as §1, with “second” for “first”, “ng/ml), IFNγ (5 ng/ml), or IFNγ +LPS” for “ng/ml)”, “24” for “4”, “nitrite” for “TNα and IL-6”, “Griess assay.” for “ELISA.”
In a third test, thyoglycollate-elicited peritoneal macrophages were stimulated with LPS (500 ng/ml)+IFNγ (5 ng/ml). Physalin B (2 μg/ml) was added 0, 2, 4 and 6 hours after IFNγ+LPS stimulation. Cell-free supernatants were collected 24 hours after stimulation and tested for nitrite production by Griess assay. IFNγ+LPS was used as control.
In a fourth test, thyoglycollate-elicited peritoneal macrophages were stimulated with LPS (500 ng/ml)+IFNγ (5 ng/ml) in the presence of physalin B (2 μg/ml) or indomethacyn (1 μg/ml). Cell-free supernatants were collected 24 hours after stimulation and tested for nitrite production by Griess assay.

[7] = tested on: ConA stimulated splenocytes; assay: Proliferation of ConA-stimulated splenocytes (3H thymidine uptake); assay type: cell-based, BALB/c; settings: ConA 1 μg/ml, several concentrations, FIG. 7
Experimental: In a fifth test, BALB/c spleen cells were stimulated with ConA (1 μg/ml) in the presence of several concentrations of physalin B. After 24 hours, cultures were pulsed with ^3H thymidine. Proliferation was assessed by measurement of thymidine uptake.

[8] = tested on: IL-2 production by ConA stimulated splenocytes; assay: IL-2 production by ConA-stimulated splenocytes (ELISA); assay type: cell-based, BALB/c; settings: ConA 1 μg/ml, several concentrations, 24 hours, FIG. 8
Experimental: In a sixth test, BALB/c spleen cells were stimulated with ConA (1 μg/ml) in the presence of several concentrations of physalin B. Cell-free supernatants were collected 24 hours after stimulation and tested for IL-2 production by ELISA.

[9] = tested on: BALB/c spleen cells or thyoglycollate-elicited peritoneal macrophages; assay: Viability of spleen cells and peritoneal macrophages (MTT); assay type: cell-based; settings: one day or three days of culturing, FIG. 9
Experimental: In the last test, BALB/c spleen cells or thyoglycollate-elicited peritoneal macrophages were cultured in the presence of several concentrations of physalin B. After one day (FIG. 9B) or three days (FIG. 9A) of culturing, plates were pulsed with MTT. Cell-viability was evaluated 2 hours later by optical density measuring at 570 nm.

[10] = tested on: human tumors like hepatoma, cervix uteri, lung and colon cells; settings: in vivo and in vitro tests; cited from earlier work
[11] = tested on: Trypanosoma brucei rhodesiense; settings: commonly used trypanocidal drug; cited from earlier work

Question: Which “Mortality of Parasite (%)” value ([1]; dose 2.5 mg/ml, contact period 24 hours) does the source give for `C[C@]12C(=O)C=CCC1=CC[C@@H]1[C@@H]2CC[C@]2(O)C(=O)O[C@@]3(C)[C@H]4C[C@]5(C)[C@@H](CO[C@@]16O[C@@]32[C@H]5C6=O)C(=O)O4` [Physalin B] here?
Answer: Its value is 100%.

Question: And the “Mortality of Parasite (%)” value ([1]; dose 2.5 mg/ml, contact period 48 hours)?
Answer: Its value is 100%.

Question: And the parasite mortality [2]?
Answer: The parasite mortality was 100%.

Question: What about the “in vitro reduction in the infection of peritoneal macrophages” value [3] of the same compound?
Answer: The value was 100%.

Question: What about the “TNFα production by macrophages” value [4] of the same compound?
Answer: Its value is “inhibitory properties”.

Question: And the “IL-6 production by macrophages” value [5]?
Answer: The value was “inhibitory properties”.

Question: What about the “nitric oxide production, physalin B added at different times” value ([6]; 2 μg/ml added 0, 2, 4 and 6 hours after IFNγ+LPS stimulation, FIG. 5) of the same compound?
Answer: Its value is “time-dependence of the inhibition”.

Question: What about the “nitric oxide production by macrophages” value ([6]; LPS 500 ng/ml, IFNγ 5 ng/ml or IFNγ+LPS, various concentrations, FIG. 4) of the same compound?
Answer: The value was “inhibitory properties”.

Question: And the “nitric oxide production in the presence of indomethacyn” value ([6]; LPS+IFNγ, physalin B 2 μg/ml, indomethacyn 1 μg/ml, FIG. 6)?
Answer: Its value is “addition of indomethacyn does not block the inhibition”.

Question: What about the “proliferation of ConA stimulated splenocytes (thymidine uptake)” value [7] of the same compound?
Answer: The value was “inhibits proliferation”.

Question: What about the “IL-2 production by ConA stimulated splenocytes” value [8] of the same compound?
Answer: The value was “inhibits IL-2 production”.

Question: And the “concentrations at which non-toxic in vitro (cell viability, MTT)” value [9]?
Answer: The value was “below 5 μg/ml”.

Question: For `C[C@@]12C[C@H]3OC(=O)[C@@H]1CO[C@@]14O[C@]5([C@H]2C1=O)[C@@](O)(CC[C@H]1[C@H]4C[C@@H](O)[C@@]2(O)CC=CC(=O)[C@]12C)C(=O)O[C@@]35C` [Physalin D], which “Mortality of Parasite (%)” value ([1]; dose 40 μg/ml, contact period 24 hours) is on record?
Answer: The value was 100%.

Question: What about the “Mortality of Parasite (%)” value ([1]; dose 40 μg/ml, contact period 48 hours) of the same compound?
Answer: The value was 100%.

Question: And the “activity against human tumors” value [10]?
Answer: Its value is “active”.

Question: For `C=C1C(=O)O[C@@H]2C[C@@]1(C)[C@@H]1C(=O)[C@]3(O)O[C@]14[C@@]2(C)OC(=O)[C@@]4(O)CC[C@H]1[C@H]3[C@H](O)C=C2CC=CC(=O)[C@@]21C` [physalin A], which “activity against human tumors” value [10] is on record?
Answer: The value was “active”.

Question: For `C[C@@]12C[C@H]3OC(=O)[C@@H]1CO[C@]14O[C@]5([C@H]2C1=O)[C@@](O)(CC[C@H]1[C@H]4C[C@H]2O[C@]24CC=CC(=O)[C@]14C)C(=O)O[C@@]35C` [physalin F], which “activity against human tumors” value [10] is on record?
Answer: Its value is “active”.

Question: For `C[C@@H]1C(=O)O[C@@H]2C[C@@]1(C)C1C(=O)[C@]3(O)O[C@@]14[C@@](O)(CCC1C3[C@H](O)C=C3C=CCC(=O)[C@@]31C)C(=O)O[C@@]24C` (stereo partly shown) [physalin L], which “activity against human tumors” value [10] is on record?
Answer: The value was “active”.

Question: Which IC50 [11] does the source give for `Cc1ccc(C(=O)Nc2ccc(S(=O)(=O)O)c3cc(S(=O)(=O)O)cc(S(=O)(=O)O)c23)cc1NC(=O)c1cccc(NC(=O)Nc2cccc(C(=O)Nc3cc(C(=O)Nc4ccc(S(=O)(=O)O)c5cc(S(=O)(=O)O)cc(S(=O)(=O)O)c45)ccc3C)c2)c1` [suramin] here?
Answer: The IC50 was 0.0107 µg/mL (≈ 8.25 nM).
